# Peptide text beside a SMILES is read from it.
# T1: wild-type EcMetAP-I (Escherichia coli, UniProt P0AE18)
# T1 sequence (P0AE18 1-264): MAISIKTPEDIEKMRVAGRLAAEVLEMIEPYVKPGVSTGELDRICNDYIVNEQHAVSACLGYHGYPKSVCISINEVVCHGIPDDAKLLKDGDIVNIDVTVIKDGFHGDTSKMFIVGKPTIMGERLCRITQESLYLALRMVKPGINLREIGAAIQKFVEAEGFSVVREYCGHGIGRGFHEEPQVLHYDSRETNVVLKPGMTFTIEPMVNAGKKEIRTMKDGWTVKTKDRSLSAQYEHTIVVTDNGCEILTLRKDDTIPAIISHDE
# T2: EcMetAP-I (Escherichia coli, UniProt P0AE18)
# T2 sequence (P0AE18 1-264): T1 sequence (P0AE18 1-264)
# B1: wild-type EcMetAP (Escherichia coli K-12) (protein)
# chain: T1 sequence (P0AE18 1-264)
# Assays:
# PjMetAP-II [1] = biological target: T3, PjMetAP-II (Pyrococcus furiosus, UniProt P56218); experiment: Reaction of type-II MetAP with Inhibitor 1 and Inhibitor 2, catalytic activity; format: biochemical; conditions: reaction for up to 12 hours
# Procedure: (§1) Since only C59 appears to be accessible for covalent modification, two potential inhibitors (Inhibitor 1 and Inhibitor 2, as depicted in FIG. 10) were prepared based on molecular modeling, one of which contains a good leaving group (I^−) and should be susceptible to nucleophilic attack while the second will not undergo nucleophilic addition.
# wild-type EcMetAP-I = biological target: T1, wild-type EcMetAP-I; experiment: Reaction of wild-type EcMetAP-I with Inhibitor 1 and Inhibitor 2, catalytic activity; format: biochemical, E. coli; conditions: reaction for up to 12 hours
# Procedure: as §1
# EcMetAP-I [2] = biological target: T2, EcMetAP-I; experiment: MALDI-TOF analysis of EcMetAP-I with and without Inhibitor 1; format: binding, E. coli
# Procedure: Matrix-Assisted Laser Desorption Ionization-Time of Flight (MALDI-TOF) spectrometric analysis was performed on EcMetAP-I in both the presence and absence of Inhibitor 1.
# EcMetAP-I [3] = biological target: T2, EcMetAP-I; experiment: DTNB inactivation of EcMetAP-I, hydrolysis of MP-p-NA; format: biochemical, E. coli; conditions: 200 μM DTNB, Co(II)-loaded EcMetAP-I, strict anaerobic conditions, pH 7.5, MP-p-NA hydrolysis
# Procedure: In order to determine if Cys59 and Cys70 are involved in substrate recognition and binding, it was examined if the cysteine-specific chemical modification reagent, 5,5′-dithio-bis(2-nitrobenzoic acid) (DTNB) inhibits the hydrolysis of methionylprolyl-p-nitroanilide (MP-p-NA) by EcMetAP. A 200 μM solution of DTNB was prepared in 50 mM HEPES buffer, pH 7.5, […] and added to a […] sample of Co(II)-loaded EcMetAP-I under strict anaerobic conditions.
# HsMetAP type-II enzyme = HsMetAP type-II enzyme (Homo sapiens, UniProt P50579); experiment: DTNB effect on catalytic activity of HsMetAP type-II; format: biochemical; conditions: 200 μM DTNB
# C59A EcMetAP [4] = biological target: T4, C59A EcMetAP (Escherichia coli, UniProt P0AE18, C59A); experiment: DTNB inactivation of C59A mutant enzyme; format: biochemical, E. coli; conditions: 10 μM DTNB
# T4 construct: made in house
# Procedure: (§2) Since at least one surface accessible cysteine residue, in addition to Cys59 and Cys70, exists in EcMetAP-I, reaction of DTNB with other residues cannot be ruled out. In order to circumvent this problem, both the C59A and C70A EcMetAP-I mutant enzymes were prepared and purified using the QuikChange Site-directed Mutagenesis Kit (Stratagene) and each mutation was verified by nucleotide sequencing. Both mutant enzymes bind one equivalent of Co(II) or Fe(II) tightly, based on ICP-AES analysis, which is identical to wild-type EcMetAP, and their kinetic parameters are listed below. […] Moreover, the Km values for both Co(II)— and Fe(II)-loaded EcMetAP C59A and C70A double and quadruple, respectively.
# PjMetAP-II [5] = biological target: T3, PjMetAP-II; experiment: DTNB inactivation of type-II MetAP, identical experiments; format: biochemical; conditions: even after several hours
# C70A EcMetAP [6] = biological target: T5, C70A EcMetAP (Escherichia coli, UniProt P0AE18, C70A); experiment: DTNB inactivation of C70A mutant enzyme; format: biochemical, E. coli; conditions: compared with wild-type
# T5 construct: made in house
# Procedure: as §2
# C59A EcMetAP [7] = biological target: T4, C59A EcMetAP; experiment: Kinetic constants towards MGMM, C59A mutant; format: biochemical, E. coli; conditions: 30° C., pH 7.5
# Procedure: as §2
# C70A EcMetAP [8] = biological target: T5, C70A EcMetAP; experiment: Kinetic constants towards MGMM, C70A mutant; format: biochemical, E. coli; conditions: 30° C., pH 7.5
# Procedure: as §2
# [9] = substrate: CSCC[C@H](NC(=O)[C@H](CCSC)NC(=O)CNC(=O)[C@@H](N)CCSC)C(=O)O; experiment: Kinetic constants towards MGMM, wild-type enzyme; format: biochemical, E. coli; conditions: 30° C., pH 7.5
# Procedure: as §2
molecule,measurement,setting,value
"O=P(O)(O)CCCCI [Inhibitor 1, 4-iodobutylphosphonic acid]",inhibition of type-II MetAP,PjMetAP-II [1],not significantly inhibited
same,effect on catalytic activity of EcMetAP-I,wild-type EcMetAP-I,complete and irreversible loss in catalytic activity
same,shift in mass peak of EcMetAP-I upon reaction (addition),"EcMetAP-I [2]; MALDI-TOF, enzyme alone 29,500±10",140 mass units
same,mode of binding to EcMetAP-I,"EcMetAP-I [2]; via C59, concluded from MALDI-TOF",covalently bound
"O=C(O)c1cc(SSc2ccc([N+](=O)[O-])c(C(=O)O)c2)ccc1[N+](=O)[O-] [DTNB, 5,5′-dithio-bis(2-nitrobenzoic acid)]",time until EcMetAP was completely inactive after addition of DTNB,EcMetAP-I [3],50 min
same,loss in catalytic activity,HsMetAP type-II enzyme,no loss in catalytic activity
same,inactivation rate,C59A EcMetAP [4]; compared with wild-type,slower rate
same,inactivation of the catalytic activity,C59A EcMetAP [4]; strict anaerobic conditions,complete inactivation
same,inactivation due to DTNB,PjMetAP-II [5],no inactivation
same,observed inactivation rate,C70A EcMetAP [6],identical to wild-type enzyme
CSCC[C@H](NC(=O)[C@H](CCSC)NC(=O)CNC(=O)[C@@H](N)CCSC)C(=O)O [MGMM] (H-MGMM-OH),Km,C59A EcMetAP [7]; Co(II)-loaded,6.4 ± 0.2 mM
same,Km,C59A EcMetAP [7]; Fe(II)-loaded,8 ± 0.2 mM
same,Km,C70A EcMetAP [8]; Co(II)-loaded,10 ± 0.2 mM
same,Km,C70A EcMetAP [8]; Fe(II)-loaded,11 ± 0.2 mM
"O=C(O)CCCCCP(=O)(O)O [Inhibitor 2, 6-phosphonhexanoic acid]",inhibition of type-II MetAP,PjMetAP-II [1],not significantly inhibited
same,effect on catalytic activity of EcMetAP-I,wild-type EcMetAP-I,did not significantly alter
B1,Km,[9]; other: Co(II)-loaded,3.2 ± 0.1 mM
same,Vmax,[9]; other: Co(II)-loaded,39 µmol/min/mg
same,kcat,[9]; other: Co(II)-loaded,19.5 s⁻¹
same,kcat/Km,[9]; other: Co(II)-loaded,6100 M⁻¹ s⁻¹
same,Km,[9]; other: Fe(II)-loaded,2.0 ± 0.3 mM
same,Vmax,[9]; other: Fe(II)-loaded,55 µmol/min/mg
same,kcat,[9]; other: Fe(II)-loaded,28 s⁻¹
same,kcat/Km,[9]; other: Fe(II)-loaded,14000 M⁻¹ s⁻¹

# Source: US20050026873A1, “Type-I methionyl aminopeptidases inhibitors in antibacterial targeting” (priority 2003, published 2005)
